# Laboratory results as given in publication PMC7764985 (2020).
# How the values were obtained:
# [1] = system: FB1_39 (DNA, aptamer) ATACCAGCTTATTCAATTAATCGCATTACCTTATACCAGCTTATTCAATTACGTCTGCACATACCAGCTTATTCAATTAGATAGTAAGTGCAATCT; test: microscale thermophoresis; details: 100 mM NaCl, 2 mM MgCl2, 5 mM KCl, 1 mM CaCl2; 20 mM Tris, pH 7.6, 25 °C; 5 nM aptamer
# [2] = system: FB1_39t3 (DNA, aptamer) ATACCAGCTTATTCAATTAATCGCATTACCTTATACCAGCTTATTCAATTACGTCTGCACATACCAGCTTATTCAATT; test: microscale thermophoresis; details: 100 mM NaCl, 2 mM MgCl2, 5 mM KCl, 1 mM CaCl2; 20 mM Tris, pH 7.6, 25 °C; 5 nM aptamer
# [3] = system: FB1_10 (DNA, aptamer) AGCAGCACAGAGGTCAGATGCGATCTGGATATTATTTTTGATACCCCTTTGGGGAGACATCCTATGCGTGCTACCGTGAA; test: microscale thermophoresis; details: 100 mM NaCl, 2 mM MgCl2, 5 mM KCl, 1 mM CaCl2; 20 mM Tris-HCl, 0.02% Tween 20, pH 7.4, 25 °C; 5 nM aptamer
# [4] = system: FB1_39 (DNA, aptamer) ATACCAGCTTATTCAATTAATCGCATTACCTTATACCAGCTTATTCAATTACGTCTGCACATACCAGCTTATTCAATTAGATAGTAAGTGCAATCT; test: magnetic beads assay, fluorescence; details: 100 mM NaCl, 2 mM MgCl2, 5 mM KCl, 1 mM CaCl2; immobilised compound; 20 mM Tris, pH 7.6, room temperature; aptamer 0.5-100 nM
# [5] = system: FB1_39t3 (DNA, aptamer) ATACCAGCTTATTCAATTAATCGCATTACCTTATACCAGCTTATTCAATTACGTCTGCACATACCAGCTTATTCAATT; test: magnetic beads assay, fluorescence; details: 100 mM NaCl, 2 mM MgCl2, 5 mM KCl, 1 mM CaCl2; immobilised compound; 20 mM Tris, pH 7.6, room temperature; aptamer up to 2000 nM
# [6] = system: FB1_10 (DNA, aptamer) AGCAGCACAGAGGTCAGATGCGATCTGGATATTATTTTTGATACCCCTTTGGGGAGACATCCTATGCGTGCTACCGTGAA; test: magnetic beads assay, fluorescence; details: 100 mM NaCl, 2 mM MgCl2, 5 mM KCl, 1 mM CaCl2; immobilised compound; 20 mM Tris-HCl, 0.02% Tween 20, pH 7.4, room temperature; aptamer up to 2000 nM
structure (smiles),measurement,setting,value
CCCC[C@@H](C)[C@@H](OC(=O)C[C@@H](CC(=O)O)C(=O)O)[C@H](C[C@@H](C)C[C@H](O)CCCC[C@@H](O)C[C@H](O)[C@H](C)N)OC(=O)C[C@@H](CC(=O)O)C(=O)O,KD,[1],31 ± 22 nM
same,KD,[2],2200 ± 1100 nM
same,KD,[3],162 ± 137 nM
same,KD,[4],1.53 ± 0.67 nM
same,binding,[5],no
same,binding,[6],no
